Measurements from PubChem BioAssay (NCI).
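Protocol summary: plate cells (96-well), add compound at 5 concentrations, incubate 48 h, interpolate endpoints linearly. GI50 = concentration required for 50% inhibition of growth. At the TGI there is no net growth.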

What was measured:
Test in all cases: NCI-60 cell line screen, 48 h
[1] = test system: HS 578T breast
[2] = test system: HT29 colon
[3] = test system: MDA-MB-435
[4] = test system: NCI-H226 lung
[5] = test system: NCI-H460 lung
[6] = test system: OVCAR-8 ovarian
[7] = test system: SF-539 CNS
[8] = test system: SK-OV-3 ovarian

Row | Compound | GI50 [1] [µM] | TGI [1] [µM] | GI50 [2] [µM] | TGI [2] [µM] | GI50 [3] [µM] | TGI [3] [µM] | GI50 [4] [µM] | TGI [4] [µM] | GI50 [5] [µM] | TGI [5] [µM] | GI50 [6] [µM] | TGI [6] [µM] | GI50 [7] [µM] | TGI [7] [µM] | GI50 [8] [µM] | TGI [8] [µM]
1 | CN1CCN(C(=O)C(C)(C)c2ccc(C(=O)Nc3cn4cc(-c5ccncc5)ccc4n3)cc2)CC1 | 0.327 | 3.66 | 0.358 | > 94.9 | 0.367 | 17.5 | 0.32 | 2.51 | 0.303 | 34.3 | 0.347 | > 100 | 0.246 | 1.17 | 0.275 | 17.5
2 | O=C1CCCCCCCCCCC1CN1CCCC1 (stereo not drawn) | – | 84.7 | – | 77.1 | – | > 100 | – | > 100 | – | > 100 | – | > 100 | – | 65.1 | – | > 100
3 | Cn1ncnc1[C@H]1c2n[nH]c(=O)c3cc(F)cc(c23)N[C@@H]1c1ccc(F)cc1 | > 100 | > 100 | > 100 | > 100 | > 100 | > 100 | > 100 | > 100 | 0.0354 | > 100 | > 100 | > 100 | – | > 100 | > 100 | > 100
4 | COc1ccc2c(c1)NC1=C(C(=O)OC1)C2c1cc(OC)c2c(c1)OCO2 (stereo not drawn) | < 0.0189 | > 100 | 0.0314 | > 100 | < 0.0123 | 0.0322 | < 0.0153 | – | 0.0274 | > 100 | < 0.0185 | > 100 | < 0.0178 | > 83.2 | 0.0204 | –
5 | C=C1C(O)C2C(=C(CC)C13CC3)C(=O)C(C)(C)C2OC (stereo not drawn) | > 100 | > 100 | > 100 | > 100 | > 100 | > 100 | – | – | 39.3 | > 100 | 53.1 | > 100 | 54.4 | > 100 | > 100 | > 100
6 | CCCCOC(=O)N1CCN(/[N+]([O-])=N/Oc2ccc([N+](=O)[O-])cc2[N+](=O)[O-])CC1 | 20.9 | > 100 | 4.67 | > 100 | 4.6 | 16.4 | 2.54 | 5.95 | 4.94 | > 100 | 25.5 | > 100 | 2.56 | 6.11 | – | –
7 | CN(C)CCN1C(=O)c2c(c3c4ccccc4n4c3c3c2c2ccccc2n3C2CC(O)C(O)C4(C)O2)C1=O (stereo not drawn) | 2.34 | 12 | 1.04 | 7.54 | 2 | 7.99 | 2.26 | 29 | 0.232 | 5.08 | 1.47 | 9.39 | – | – | 1.8 | 9.9
8 | COc1ccc(CCN2CC=Cn3c2nc2ccccc2c3=O)cc1 | 0.0329 | 77.4 | 0.0319 | 27.4 | – | – | 0.101 | > 85.8 | 0.0358 | 14.4 | 0.054 | > 41 | 0.0209 | 0.0627 | 0.0559 | > 89.7
9 | CCOC(=O)CCC(NC(=O)OCc1ccccc1)C(=O)NC(CCC(=O)OCC)C(=O)NC(CCC(=O)OCC)C(=O)NC(CCC(=O)OCC)C(=O)NC(CCC(=O)OCC)C(=O)NC(CCC(=O)OCC)C(=O)NC(CCC(=O)OCC)C(=O)OCC (stereo not drawn) | – | – | – | > 100 | – | > 100 | – | > 100 | – | > 100 | – | > 100 | – | – | – | –
10 | COc1ccc(C/C(C)=C(/c2ccc(OCCN3CCCCC3)cc2)c2ccc(OC(=O)NCc3ccccc3)cc2)cc1 | – | – | 0.385 | 0.841 | 0.393 | 0.736 | 0.441 | 0.868 | 0.412 | 0.775 | 0.472 | 0.937 | 0.401 | 0.766 | 0.436 | 0.838
11 | COc1cc(OC)c(C/C=C/c2ccccc2)cc1O | – | 47.3 | – | 31.5 | – | 30.7 | – | 33.8 | – | 31 | – | 32.8 | – | 29.7 | – | –
12 | Cc1cc([N+](=O)[O-])c(NS(=O)(=O)c2cccc(C(=O)O)c2)cc1-c1cccnc1 | – | – | > 100 | > 100 | > 100 | > 100 | > 100 | > 100 | > 100 | > 100 | > 100 | > 100 | > 100 | > 100 | > 100 | > 100
13 | O=C1C(Nc2ccc(Cl)cc2)=C(I)C(=O)c2ncccc21 | 2.13 | 6.44 | – | – | 1.43 | 2.9 | 1.52 | 3.03 | – | – | 1.51 | 3.12 | 1.63 | 3 | 4.28 | 18
14 | CC1(C)CC(O)C(C)(C)[C@@H](O)C1 (stereo partly drawn) | – | > 100 | – | > 100 | – | – | – | > 100 | – | > 100 | – | > 100 | – | > 100 | – | > 100
